Reference: EP4592286A1, “MACROCYCLIC NITROGEN-CONTAINING CROWN ETHER COMPOUND AND USE THEREOF AS PROTEIN KINASE INHIBITOR” (Artivila Biopharma, priority 2022, dated 2024)

Assays:
Assay type in all cases: biochemical
CDK7 = CDK7 (Homo sapiens, UniProt P50613); assay: experiment of inhibiting kinase activity (Caliper mobility shift assay), CDK7; details: read-out: inhibition rate CDK7
Method: (§1) The inhibition rates of tested compounds on JAK1, JAK2, JAK3, TYK2, CDK7, CDK9, EGFR (T790M) and LRRK2 kinases were measured. The test concentrations of the compounds were 10 nM and 100 nM, and the detection was performed by replicate wells. Alternatively, compounds were 3-fold serial diluted from 10 µM for 10 concentrations in replicate wells.
(§2) The inhibitory effects of the compounds on JAK1, JAK2, JAK3, CDK7 and CDK9 kinases were detected by the method of Caliper mobility shift assay. 250 nL of the compound at 100-fold final concentration was transferred to a destination plate 384-well-plate by using a liquid handler Echo 550. A kinase solution at 2.5-fold final concentration was prepared with 1×kinase buffer. 10 µL of the kinase solution with 2.5-fold final concentration was added to compound wells and positive control wells; and 10 µL of 1×kinase buffer was added to negative control wells. The mixture was centrifuged at 1000 rpm for 30 seconds and then incubated at room temperature for 10 minutes. A mixed solution of ATP and kinase substrate at 5/3-fold final concentration was prepared with 1×kinase buffer, and 15 µL of the mixed solution of ATP and substrate at 5/3-fold final concentration was added to start the reaction. The 384-well plate was centrifuged at 1000 rpm for 30 seconds, shaked and mixed evenly, then incubated at room temperature for a corresponding time. 30 µL of stop solution was added to stop the kinase reaction, the mixture was centrifuged at 1000 rpm for 30 seconds, and shaked and mixed evenly. The conversion rate was read by Caliper EZ Reader. The conversion inhibition rate%=(average positive control conversion rate%-sample conversion rate%)/(average positive control conversion rate%-average negative control conversion rate%). Where negative control wells represent the conversion readings of the background well of kinase buffer; and positive control wells represent the conversion readings of wells without compound inhibition. With the log value of concentration as the x axis and the percentage inhibition rate as the y axis, the dose-response curve was fitted by the log (inhibitor) vs. response-variable slope of the analyzing softwar GraphPad Prism 5, and the IC50 values of each compound on enzyme activity were obtained. Calculation formula is as follows: y=Bottom+(Top-Bottom)/(1+10^((LogIC50-x)×hillslope)), where x is logarithm of inhibitor concentration; and Y is % inhibition rate.

JAK1 = JAK1 (Homo sapiens, UniProt P23458); assay: experiment of inhibiting kinase activity (Caliper mobility shift assay), JAK1; details: for inhibition at 0.01 µM: at 10 nM; for inhibition at 0.01 µM / inhibition at 0.1 µM: read-out: inhibition rate JAK1; for inhibition at 0.1 µM: at 100 nM
Sequence of JAK1 (P23458 whole entry): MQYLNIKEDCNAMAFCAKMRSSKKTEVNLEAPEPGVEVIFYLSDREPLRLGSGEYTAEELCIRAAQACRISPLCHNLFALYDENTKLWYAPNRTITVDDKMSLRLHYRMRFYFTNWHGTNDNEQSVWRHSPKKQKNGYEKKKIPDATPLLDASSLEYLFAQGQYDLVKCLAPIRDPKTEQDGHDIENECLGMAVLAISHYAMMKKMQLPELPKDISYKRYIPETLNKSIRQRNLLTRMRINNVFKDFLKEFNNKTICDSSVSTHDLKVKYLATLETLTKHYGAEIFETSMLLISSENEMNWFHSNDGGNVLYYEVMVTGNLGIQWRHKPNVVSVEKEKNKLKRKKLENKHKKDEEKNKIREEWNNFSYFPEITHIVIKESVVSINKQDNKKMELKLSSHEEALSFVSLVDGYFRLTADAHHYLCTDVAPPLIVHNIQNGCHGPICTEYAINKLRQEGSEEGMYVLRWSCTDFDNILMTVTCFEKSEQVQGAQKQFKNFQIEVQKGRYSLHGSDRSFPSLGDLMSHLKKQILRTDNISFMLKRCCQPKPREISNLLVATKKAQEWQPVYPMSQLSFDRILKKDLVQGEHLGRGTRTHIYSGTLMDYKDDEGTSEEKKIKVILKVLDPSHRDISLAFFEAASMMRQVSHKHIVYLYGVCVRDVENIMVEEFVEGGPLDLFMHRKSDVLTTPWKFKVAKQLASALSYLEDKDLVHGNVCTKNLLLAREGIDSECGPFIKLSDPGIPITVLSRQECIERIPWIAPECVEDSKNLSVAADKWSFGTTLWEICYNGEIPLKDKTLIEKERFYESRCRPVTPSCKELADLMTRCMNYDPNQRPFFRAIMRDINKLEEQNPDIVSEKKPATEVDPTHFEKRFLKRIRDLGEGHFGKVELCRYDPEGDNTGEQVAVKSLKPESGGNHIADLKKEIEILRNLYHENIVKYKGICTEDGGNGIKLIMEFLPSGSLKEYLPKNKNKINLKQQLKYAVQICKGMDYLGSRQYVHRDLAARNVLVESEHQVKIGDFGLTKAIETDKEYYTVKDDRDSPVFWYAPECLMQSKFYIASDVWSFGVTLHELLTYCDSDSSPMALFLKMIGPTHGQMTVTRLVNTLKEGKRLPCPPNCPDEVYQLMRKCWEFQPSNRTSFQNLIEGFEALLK
Method: as §1, §2

JAK2 = JAK2 (Homo sapiens, UniProt O60674); assay: experiment of inhibiting kinase activity (Caliper mobility shift assay), JAK2; details: for inhibition at 0.01 µM: at 10 nM; for inhibition at 0.01 µM / inhibition at 0.1 µM: read-out: inhibition rate JAK2; for inhibition at 0.1 µM: at 100 nM; for IC50: kinase activity assay, Table 3
Sequence of JAK2 (O60674 whole entry): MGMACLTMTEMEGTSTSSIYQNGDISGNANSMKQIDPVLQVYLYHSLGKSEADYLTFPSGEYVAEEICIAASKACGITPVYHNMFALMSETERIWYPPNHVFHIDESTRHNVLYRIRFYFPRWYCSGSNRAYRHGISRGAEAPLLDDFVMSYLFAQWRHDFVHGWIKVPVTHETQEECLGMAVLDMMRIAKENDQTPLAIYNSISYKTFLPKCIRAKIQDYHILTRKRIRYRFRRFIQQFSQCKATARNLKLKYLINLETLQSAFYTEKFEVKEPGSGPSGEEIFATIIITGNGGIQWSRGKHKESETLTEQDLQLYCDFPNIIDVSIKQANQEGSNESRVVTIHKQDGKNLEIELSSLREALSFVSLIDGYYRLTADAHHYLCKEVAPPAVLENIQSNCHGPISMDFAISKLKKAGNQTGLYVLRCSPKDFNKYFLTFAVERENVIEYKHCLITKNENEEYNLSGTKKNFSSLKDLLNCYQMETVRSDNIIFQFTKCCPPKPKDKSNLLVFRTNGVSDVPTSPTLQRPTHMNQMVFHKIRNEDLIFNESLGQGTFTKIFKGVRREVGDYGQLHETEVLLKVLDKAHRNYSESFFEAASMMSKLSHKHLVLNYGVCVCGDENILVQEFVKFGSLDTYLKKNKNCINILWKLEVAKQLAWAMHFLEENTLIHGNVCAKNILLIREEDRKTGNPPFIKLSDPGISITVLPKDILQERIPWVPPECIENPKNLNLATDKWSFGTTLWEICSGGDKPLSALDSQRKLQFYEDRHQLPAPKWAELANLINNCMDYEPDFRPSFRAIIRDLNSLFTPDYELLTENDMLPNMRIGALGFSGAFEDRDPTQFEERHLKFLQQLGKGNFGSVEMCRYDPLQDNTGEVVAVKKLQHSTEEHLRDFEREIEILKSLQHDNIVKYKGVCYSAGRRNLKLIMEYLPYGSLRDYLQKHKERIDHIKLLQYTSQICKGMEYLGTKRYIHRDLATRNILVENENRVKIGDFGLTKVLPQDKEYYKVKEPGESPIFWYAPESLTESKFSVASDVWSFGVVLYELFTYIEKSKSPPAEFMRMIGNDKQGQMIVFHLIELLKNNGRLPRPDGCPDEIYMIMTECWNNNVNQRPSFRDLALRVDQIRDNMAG
Method: as §1, §2

JAK3 = target: T1, JAK3 (Homo sapiens, UniProt P52333); assay: experiment of inhibiting kinase activity (Caliper mobility shift assay), JAK3; details: for inhibition at 0.01 µM: at 10 nM; for inhibition at 0.01 µM / inhibition at 0.1 µM: read-out: inhibition rate JAK3; for inhibition at 0.1 µM: at 100 nM
T1 sequence (P52333 1-1124): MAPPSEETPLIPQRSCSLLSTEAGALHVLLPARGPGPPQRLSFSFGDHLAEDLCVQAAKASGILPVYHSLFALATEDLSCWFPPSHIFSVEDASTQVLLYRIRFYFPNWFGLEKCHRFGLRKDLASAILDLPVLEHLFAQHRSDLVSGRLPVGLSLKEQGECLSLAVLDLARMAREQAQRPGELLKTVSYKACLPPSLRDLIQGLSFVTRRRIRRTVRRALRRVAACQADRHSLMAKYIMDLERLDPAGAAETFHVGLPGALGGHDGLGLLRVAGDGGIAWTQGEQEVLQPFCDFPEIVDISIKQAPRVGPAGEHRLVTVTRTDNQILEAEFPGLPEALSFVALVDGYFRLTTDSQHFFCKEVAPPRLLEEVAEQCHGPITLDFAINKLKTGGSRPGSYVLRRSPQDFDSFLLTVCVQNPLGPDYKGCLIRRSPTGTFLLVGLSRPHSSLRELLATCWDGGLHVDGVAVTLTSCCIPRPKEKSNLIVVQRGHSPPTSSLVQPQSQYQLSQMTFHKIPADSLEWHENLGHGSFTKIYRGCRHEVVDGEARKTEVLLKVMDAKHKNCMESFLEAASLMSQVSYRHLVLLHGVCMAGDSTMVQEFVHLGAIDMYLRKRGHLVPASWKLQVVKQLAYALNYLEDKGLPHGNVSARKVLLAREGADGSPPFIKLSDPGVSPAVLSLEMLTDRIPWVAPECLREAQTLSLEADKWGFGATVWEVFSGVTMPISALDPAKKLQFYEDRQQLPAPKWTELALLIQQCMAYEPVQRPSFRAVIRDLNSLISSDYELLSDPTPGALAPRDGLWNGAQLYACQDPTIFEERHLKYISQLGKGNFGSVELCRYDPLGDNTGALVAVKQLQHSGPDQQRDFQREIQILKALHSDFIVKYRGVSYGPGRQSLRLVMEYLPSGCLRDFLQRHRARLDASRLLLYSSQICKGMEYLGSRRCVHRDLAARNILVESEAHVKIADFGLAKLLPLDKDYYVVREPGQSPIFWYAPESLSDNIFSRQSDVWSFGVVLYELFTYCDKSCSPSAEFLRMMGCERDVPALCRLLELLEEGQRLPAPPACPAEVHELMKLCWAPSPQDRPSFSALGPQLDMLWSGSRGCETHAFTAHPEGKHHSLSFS
Method: as §1, §2

TYK2 = TYK2 (Homo sapiens, UniProt P29597); assay: experiment of inhibiting kinase activity, TYK2; details: read-out: inhibition rate TYK2; for inhibition at 0.01 µM: at 10 nM; for inhibition at 0.1 µM: at 100 nM
Method: as §1

LRRK2 = LRRK2 (Homo sapiens, UniProt Q5S007); assay: experiment of inhibiting kinase activity, LRRK2; details: for inhibition at 0.01 µM: at 10 nM; for inhibition at 0.01 µM / inhibition at 0.1 µM: read-out: inhibition rate LRRK2; for inhibition at 0.1 µM: at 100 nM; for IC50: kinase activity assay, Table 3
Sequence of LRRK2 (Q5S007 whole entry): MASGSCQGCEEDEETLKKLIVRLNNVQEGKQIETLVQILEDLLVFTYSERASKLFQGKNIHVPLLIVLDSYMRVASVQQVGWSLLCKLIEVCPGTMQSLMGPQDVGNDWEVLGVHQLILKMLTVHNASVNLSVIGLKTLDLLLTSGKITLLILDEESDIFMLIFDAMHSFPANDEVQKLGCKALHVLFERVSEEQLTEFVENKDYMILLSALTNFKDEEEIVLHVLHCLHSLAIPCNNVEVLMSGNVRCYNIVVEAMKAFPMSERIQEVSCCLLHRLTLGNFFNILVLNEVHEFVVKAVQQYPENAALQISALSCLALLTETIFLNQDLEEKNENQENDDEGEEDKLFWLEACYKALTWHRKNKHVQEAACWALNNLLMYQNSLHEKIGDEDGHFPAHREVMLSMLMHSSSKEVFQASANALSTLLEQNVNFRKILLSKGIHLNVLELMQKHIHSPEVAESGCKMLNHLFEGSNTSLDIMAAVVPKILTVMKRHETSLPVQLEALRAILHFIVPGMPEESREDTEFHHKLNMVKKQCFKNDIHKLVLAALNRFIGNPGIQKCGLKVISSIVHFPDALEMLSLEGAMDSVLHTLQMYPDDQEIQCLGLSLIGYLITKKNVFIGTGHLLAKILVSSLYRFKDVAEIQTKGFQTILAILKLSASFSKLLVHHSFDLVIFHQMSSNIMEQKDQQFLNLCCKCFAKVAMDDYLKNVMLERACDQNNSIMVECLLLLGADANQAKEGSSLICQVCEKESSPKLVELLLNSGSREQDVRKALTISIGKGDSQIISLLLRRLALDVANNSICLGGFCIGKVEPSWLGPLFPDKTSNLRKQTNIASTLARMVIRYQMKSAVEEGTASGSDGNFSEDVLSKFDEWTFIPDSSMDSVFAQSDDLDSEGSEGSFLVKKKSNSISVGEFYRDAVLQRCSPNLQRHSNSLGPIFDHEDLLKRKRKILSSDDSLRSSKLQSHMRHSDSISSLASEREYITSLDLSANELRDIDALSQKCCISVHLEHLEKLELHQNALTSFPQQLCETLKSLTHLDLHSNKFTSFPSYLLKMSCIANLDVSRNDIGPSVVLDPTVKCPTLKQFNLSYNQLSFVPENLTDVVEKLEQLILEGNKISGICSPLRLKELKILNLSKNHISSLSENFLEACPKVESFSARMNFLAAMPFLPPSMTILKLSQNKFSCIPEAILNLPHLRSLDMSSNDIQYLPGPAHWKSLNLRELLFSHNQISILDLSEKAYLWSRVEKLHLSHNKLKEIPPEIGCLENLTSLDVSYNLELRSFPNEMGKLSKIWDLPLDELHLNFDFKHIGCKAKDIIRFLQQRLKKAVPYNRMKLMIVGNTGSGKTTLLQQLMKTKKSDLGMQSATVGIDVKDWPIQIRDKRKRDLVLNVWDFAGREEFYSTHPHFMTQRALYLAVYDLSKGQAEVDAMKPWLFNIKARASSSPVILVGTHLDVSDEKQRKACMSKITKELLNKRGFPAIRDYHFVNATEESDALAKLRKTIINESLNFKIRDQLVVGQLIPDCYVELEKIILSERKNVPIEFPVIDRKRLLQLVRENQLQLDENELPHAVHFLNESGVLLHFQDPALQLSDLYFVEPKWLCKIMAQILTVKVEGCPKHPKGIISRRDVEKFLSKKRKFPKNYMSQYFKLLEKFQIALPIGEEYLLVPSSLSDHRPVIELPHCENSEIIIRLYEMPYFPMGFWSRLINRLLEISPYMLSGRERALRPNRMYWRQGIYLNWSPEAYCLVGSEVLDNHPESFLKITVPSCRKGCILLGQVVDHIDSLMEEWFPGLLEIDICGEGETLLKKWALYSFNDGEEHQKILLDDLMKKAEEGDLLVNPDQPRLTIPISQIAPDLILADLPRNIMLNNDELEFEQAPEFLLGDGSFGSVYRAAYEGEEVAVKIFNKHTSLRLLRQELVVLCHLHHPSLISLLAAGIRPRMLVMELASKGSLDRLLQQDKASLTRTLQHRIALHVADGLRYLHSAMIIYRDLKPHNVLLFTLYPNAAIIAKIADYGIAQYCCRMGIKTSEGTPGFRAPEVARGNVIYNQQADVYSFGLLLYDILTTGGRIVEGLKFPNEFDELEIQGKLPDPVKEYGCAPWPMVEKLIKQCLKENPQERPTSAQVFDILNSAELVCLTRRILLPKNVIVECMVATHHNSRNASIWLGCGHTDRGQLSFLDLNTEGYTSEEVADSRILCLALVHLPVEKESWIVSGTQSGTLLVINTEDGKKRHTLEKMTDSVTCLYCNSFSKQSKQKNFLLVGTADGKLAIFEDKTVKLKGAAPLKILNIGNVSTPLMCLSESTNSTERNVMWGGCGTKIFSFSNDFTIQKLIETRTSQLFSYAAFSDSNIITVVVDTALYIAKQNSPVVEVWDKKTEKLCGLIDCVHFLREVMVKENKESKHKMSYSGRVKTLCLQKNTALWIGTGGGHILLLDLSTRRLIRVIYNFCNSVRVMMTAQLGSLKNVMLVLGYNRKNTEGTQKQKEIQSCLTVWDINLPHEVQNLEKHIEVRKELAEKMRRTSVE
Method: as §1

inhibition at 0.01 µM (JAK1) [%] | inhibition at 0.01 µM (JAK2) [%] | inhibition at 0.01 µM (JAK3) [%] | inhibition at 0.01 µM (TYK2) [%] | inhibition at 0.01 µM (LRRK2) [%] | SMILES | other results
 |  |  |  |  | CN1CCOc2ccc(Nc3nc(-c4cn(C)c5ccccc45)c4cn[nH]c4n3)cc2OCC1 [Example 5, 4-methyl-N-(4-(1-methyl-1H-indol-3-yl)-1H-pyrazolo[3,4-d]pyrimidin-6-yl)-3,4,5,6-tetrahydro-2H-benzo[b][1,4,7]dioxazolin-9-amine] | inhibition at 0.1 µM (CDK7; at 100 nM): 25 to 39%
40 to 79 | > 80 | 40 to 79 | 40 to 79 | 40 to 79 | CN1CCOCCOc2cc(Nc3nc(-c4ccc(C(=O)NCC#N)cc4)c4cc[nH]c4n3)ccc2OCC1 [Example 17, N-(cyanomethyl)-4-(2-((7-methyl-2,3,6,7,8,9-hexahydro-5H-benzo[b][1,4,7]trioxa [10]azacyclododecan-13-yl)amino)-7H-pyrrolo[2,3-d]pyrimidin-4-yl)benzamide] | 
 |  |  |  |  | CCS(=O)(=O)N1CC(CC#N)(n2cc(-c3nc(Nc4ccc5c(c4)OCCN(C)CCO5)nc4[nH]ncc34)cn2)C1 [Example 29, 2-(1-(ethylsulfonyl)-3-(4-(6-((4-methyl-3,4,5,6-tetrahydro-2H-benzo[b][1,4,7]dioxazolin-9-yl)amino)-1H-pyrazolo[3,4-d]pyrimidin-4-yl)-1H-pyrazol-1-yl)azetidin-3-yl) acetonitrile] | inhibition at 0.1 µM (JAK1): > 80%; IC50 (JAK1; kinase activity assay, Table 3): < 50 nM; inhibition at 0.1 µM (JAK2): > 80%; IC50 (JAK2): < 50 nM; IC50 (JAK3; kinase activity assay, Table 3): < 50 nM; inhibition at 0.1 µM (TYK2): > 80%; inhibition at 0.1 µM (LRRK2): 40 to 79%; IC50 (LRRK2): 50 to 200 nM
 |  |  |  |  | CN1CCOc2ccc(Nc3nc(-c4ccc(C(=O)NCC#N)cc4)c4cn[nH]c4n3)cc2OCC1 [Example 38, N-(cyanomethyl)-4-(6-((4-methyl-3,4,5,6-tetrahydro-2H-benzo[b][1,4,7]dioxazolin-9-yl)amino)-1H-pyrazolo[3,4-d]pyrimidin-4-yl)benzamide] | inhibition at 0.1 µM (JAK1): 40 to 79%; inhibition at 0.1 µM (JAK2): > 80%; IC50 (JAK2): < 50 nM; inhibition at 0.1 µM (JAK3): 25 to 39%; inhibition at 0.1 µM (TYK2): 40 to 79%; inhibition at 0.1 µM (LRRK2): 40 to 79%; IC50 (LRRK2): 50 to 200 nM
 | > 80 |  |  |  | CN1CCOCCOc2ccc(Nc3ncc(F)c(Nc4cccc(S(=O)(=O)NC(C)(C)C)c4)n3)cc2OCC1 [Example 40, N-(tert-butyl)-3-((5-fluoro-2-((7-methyl-2,3,6,7,8,9-hexahydro-5H-benzo[b][1,4,7]trioxa[10]azacyclododecan-12-yl)amino)pyrimidin-4-yl)amino)benzenesulfonamide] | inhibition at 0.1 µM (JAK1): 25 to 39%; inhibition at 0.1 µM (JAK2): > 80%; inhibition at 0.1 µM (JAK3): 25 to 39%; inhibition at 0.1 µM (TYK2): 40 to 79%; inhibition at 0.1 µM (LRRK2): 25 to 39%
> 80 | > 80 | > 80 | > 80 | > 80 | CN1CCOCCOc2ccc(Nc3nc(-c4cnn(C(CC#N)C5CCCC5)c4)c4cc[nH]c4n3)cc2OCC1 (stereo not shown) [Example 48, 3-cyclopentyl-3-(4-(2-((7-methyl-2,3,6,7,8,9-hexahydro-5H-benzo[b][1,4,7]trioxa [10]azacyclododecan-12-yl)amino)-7H-pyrrolo[2,3-d]pyrimidin-4-yl)-1H-pyrazol-1-yl) propionitrile] | 
> 80 | > 80 | > 80 | > 80 | 40 to 79 | CCS(=O)(=O)N1CC(CC#N)(n2cc(-c3nc(Nc4ccc5c(c4)OCCN(C)CCOCCO5)nc4[nH]ccc34)cn2)C1 [Example 49, 2-(1-(ethylsulfonyl)-3-(4-(2-((7-methyl-2,3,6,7,8,9-hexahydro-5H-benzo[b][1,4,7]trioxa[10]azacyclododecan-12-yl)amino)-7H-pyrrolo[2,3-d]pyrimidin-4-yl)-1H-pyrazol-1-yl)azetidin-3-yl)acetonitrile] | 
40 to 79 | > 80 | 40 to 79 | 25 to 39 | 25 to 39 | CN1CCOCCOc2ccc(Nc3nc(-c4ccc(C(=O)NCC#N)cc4)c4cc[nH]c4n3)cc2OCC1 [Example 51, N-(cyanomethyl)-4-(2-((7-methyl-2,3,6,7,8,9-hexahydro-5H-benzo[b][1,4,7]trioxa [10]azacyclododecan-12-yl)amino)-7H-pyrrolo[2,3-d]pyrimidin-4-yl)benzamide] | 
25 to 39 | > 80 | > 80 | > 80 | 40 to 79 | CN1CCOCCOc2cc(Nc3nc(-c4cnn([C@H](CC#N)C5CCCC5)c4)c4cc[nH]c4n3)ccc2OCC1 [Example 74, (R)-3-cyclopentyl-3-(4-(2-((7-methyl-2,3,6,7,8,9-hexahydro-5H-benzo[b][1,4,7]trioxa[10]azacyclododecan-13-yl)amino)-7H-pyrrolo[2,3-d]pyrimidin-4-yl)-1H-pyrazol-1-yl) propionitrile] | 
40 to 79 | > 80 | 40 to 79 | > 80 | 40 to 79 | CN1CCOc2ccc(Nc3nc(-c4cnn([C@H](CC#N)C5CCCC5)c4)c4cc[nH]c4n3)cc2OCC1 [Example 76, (R)-3-cyclopentyl-3-(4-(2-((4-methyl-3,4,5,6-tetrahydro-2H-benzo[b][1,4,7]dioxazolin-9-yl)amino)-7H-pyrrolo[2,3-d]pyrimidin-4-yl)-1H-pyrazol-1-yl)propanenitrile] | 
> 80 | > 80 | > 80 | > 80 | > 80 | CN1CCOc2ccc(Nc3nc(-c4cnn([C@@H](CC#N)C5CCCC5)c4)c4cc[nH]c4n3)cc2OCC1 [Example 77, (S)-3-cyclopentyl-3-(4-(2-((4-methyl-3,4,5,6-tetrahydro-2H-benzo[b][1,4,7]dioxazolin-9-yl)amino)-7H-pyrrolo[2,3-d]pyrimidin-4-yl)-1H-pyrazol-1-yl)propanenitrile] | 
 |  |  |  |  | C=CC(=O)Nc1cc(C)ccc1Nc1nc(Nc2ccc3c(c2)OCCN(C)CCO3)ncc1C(F)(F)F [Example 112, N-(5-methyl-2-((2-((4-methyl-3,4,5,6-tetrahydro-2H-benzo[b][1,4,7]dioxazolin-9-yl)amino)-5-(trifluoromethyl)pyrimidin-4-yl)amino)phenyl)acrylamide] | inhibition at 0.01 µM (CDK7; at 10 nM): 40 to 79%
